# In US6362369B1, “Phthalic acid diamide derivatives fluorine-containing aniline compounds as starting material, agricultural and horticultural insecticides, and a method for application of the insecticides” (Nihon Nohyaku Co., Ltd., priority 1997, dated 2002):
# What was measured:
# Type in all cases: in vivo
# [1] = system: common cutworm (Spodoptera Litura); test: Insecticidal effect on common cutworm (Test Example 2); settings: 500 ppm, 25° C.; for Insecticidal effect on common cutworm (Test Example 2), judged grade / Insecticidal effect (Test Example 2), judged from mortality: cabbage leaf dip; for Insecticidal effect on common cutworm (Test Example 2), judged grade: second-instar larvae; for Insecticidal effect on common cutworm (Test Example 2), judged grade / Insecticidal effect, Test Example 2: eight days after inoculation; for Insecticidal effect (Test Example 2), judged from mortality: 8 days after inoculation; for Insecticidal effect, Test Example 2: cabbage leaf immersed
# Method in brief: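 Second-instar larvae placed in 9 cm Petri dishes with air-dried treated material, held at 25 °C. Dead and live insects counted 8 days after inoculation; mortality calculated and scored against a set criterion. Triplicate groups of 10 insects.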
# [2] = system: diamondback moth (Plutella xylostella); test: Insecticidal effect on diamondback moth (Test Example 1); settings: for Insecticidal effect on diamondback moth (Test Example 1), judged grade: mortality judged according to the criterion shown in Test Example 1; for Insecticidal effect (Test Example 1), judged from mortality / Insecticidal effect, Test Example 1: diamondback moth; for Insecticidal effect (Test Example 1), judged from mortality: judged by the criterion of Test Example 1
# Method in brief: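 Triplicate groups of 10 insects were scored: six days after immersion of oviposited Chinese cabbage seedlings and holding at 25 °C post air-drying, hatched larvae were counted. Mortality derived from these counts and insecticidal effect judged by a set criterion.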
# [3] = system: rice leafroller (Cnaphalocrocis medinalis); test: Insecticidal effect on rice leafroller (Test Example 3); settings: 500 ppm, 25° C., humidity 70%; for Insecticidal effect on rice leafroller (Test Example 3), judged grade / Insecticidal effect (Test Example 3), judged from mortality: rice lamina dip; for Insecticidal effect on rice leafroller (Test Example 3), judged grade: third-instar larvae; for Insecticidal effect on rice leafroller (Test Example 3), judged grade / Insecticidal effect, Test Example 3: four days after inoculation; for Insecticidal effect (Test Example 3), judged from mortality: 4 days after inoculation; for Insecticidal effect, Test Example 3: rice lamina immersed
# Method in brief: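 Insecticidal effect is judged by a predefined criterion from dead/alive counts four days after infesting air-dried lamina with third-instar larvae, kept on moistened filter paper at 25° C, 70% humidity.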
# [4] = second-instar larvae of common cutworm
# [5] = third-instar larvae of rice leafroller
# [6] = common cutworm second-instar larvae
# [7] = mortality judged by criterion of Test Example 1
# [8] = rice leafroller third-instar larvae
# [9] = judged by the mortality criterion of Test Example 1
smiles,measurement,setting,value
CC(C)NC(=O)c1c(C(=O)Nc2cccc(C(F)(F)F)c2)cccc1[N+](=O)[O-] [compound 607],"Insecticidal effect on common cutworm (Test Example 2), judged grade",[1],A (100)
same,"Insecticidal effect on diamondback moth (Test Example 1), judged grade",[2],A (100)
same,"Insecticidal effect on rice leafroller (Test Example 3), judged grade",[3],A (100)
CC(C)(C)NC(=O)c1c(F)cccc1C(=O)Nc1ccc(C(F)(F)C(F)(F)F)cc1F [compound 1507],"Insecticidal effect (Test Example 2), judged from mortality",[1]; [4],A (100)
same,"Insecticidal effect (Test Example 1), judged from mortality",[2],A (100)
same,"Insecticidal effect (Test Example 3), judged from mortality",[3]; [5],A (100)
Cc1cc(C(F)(F)C(F)(F)F)ccc1NC(=O)c1cccc([N+](=O)[O-])c1C(=O)NC(C)C [compound 683],"Insecticidal effect on common cutworm (Test Example 2), judged grade",[1],A (100)
same,"Insecticidal effect on diamondback moth (Test Example 1), judged grade",[2],A (100)
same,"Insecticidal effect on rice leafroller (Test Example 3), judged grade",[3],A (100)
Cc1cc(C(F)(F)C(F)(F)F)ccc1NC(=O)c1cccc(Cl)c1C(=O)NC(C)CO (stereo not drawn) [compound 1298],"Insecticidal effect, Test Example 2",[1]; [6],A (100)
same,"Insecticidal effect, Test Example 1",[2]; [7],A (100)
same,"Insecticidal effect, Test Example 3",[3]; [8],A (100)
CC(C)NC(=O)c1c(I)cccc1C(=O)Nc1ccc(C(F)(F)F)cc1Cl [compound 369],"Insecticidal effect, Test Example 2",[1]; [4],A (100)
same,"Insecticidal effect, Test Example 1",[2]; [9],A (100)
same,"Insecticidal effect, Test Example 3",[3]; [5],A (100)
Cc1cc(C(F)(F)C(F)(F)F)ccc1NC(=O)c1cccc(Cl)c1C(=O)NC(C)(C)c1cccc(Cl)c1 [compound 1485],"Insecticidal effect (Test Example 2), judged from mortality",[1]; [4],A (100)
same,"Insecticidal effect (Test Example 1), judged from mortality",[2],A (100)
same,"Insecticidal effect (Test Example 3), judged from mortality",[3]; [5],A (100)
Cc1cc(OC(F)(F)C(F)(Br)C(F)(F)F)ccc1NC(=O)c1ccccc1C(=O)NC(C)C (stereo not drawn) [compound 66],"Insecticidal effect, Test Example 2",[1]; [4],A (100)
same,"Insecticidal effect, Test Example 1",[2]; [9],A (100)
same,"Insecticidal effect, Test Example 3",[3]; [5],B (99-90)
CON=C(C)c1ccc(NC(=O)c2cccc(I)c2C(=O)NC(C)C)cc1 [compound 1737],"Insecticidal effect (Test Example 2), judged from mortality",[1]; [4],C (89-80)
same,"Insecticidal effect (Test Example 1), judged from mortality",[2],A (100)
same,"Insecticidal effect (Test Example 3), judged from mortality",[3]; [5],A (100)
Cc1cc(Sc2ccc(Cl)cc2)ccc1NC(=O)c1cccc(I)c1C(=O)NC(C)C [compound 404],"Insecticidal effect, Test Example 2",[1]; [4],A (100)
same,"Insecticidal effect, Test Example 1",[2]; [9],A (100)
same,"Insecticidal effect, Test Example 3",[3]; [5],A (100)
Cc1cc(OCC(F)OC(F)(F)F)ccc1NC(=O)c1cccc([N+](=O)[O-])c1C(=O)NC(C)C (stereo not drawn) [compound 701],"Insecticidal effect on common cutworm (Test Example 2), judged grade",[1],A (100)
same,"Insecticidal effect on diamondback moth (Test Example 1), judged grade",[2],A (100)
same,"Insecticidal effect on rice leafroller (Test Example 3), judged grade",[3],A (100)
Cc1cc(OC(F)(F)F)ccc1NC(=O)c1cc(F)c(F)cc1C(=O)NC(C)C [compound 1287],"Insecticidal effect, Test Example 2",[1]; [6],A (100)
same,"Insecticidal effect, Test Example 1",[2]; [7],A (100)
same,"Insecticidal effect, Test Example 3",[3]; [8],A (100)
Cc1cc(C(F)(F)C(F)(F)C(F)(F)C(F)(F)F)ccc1NC(=O)c1cccc(F)c1C(=O)NC(C)C [compound 498],"Insecticidal effect on common cutworm (Test Example 2), judged grade",[1],A (100)
same,"Insecticidal effect on diamondback moth (Test Example 1), judged grade",[2],A (100)
same,"Insecticidal effect on rice leafroller (Test Example 3), judged grade",[3],A (100)
CCN(CC)C(=O)c1c(I)cccc1C(=O)Nc1ccc(C(O)(C(F)(F)F)C(F)(F)F)cc1 [compound 1130],"Insecticidal effect, Test Example 2",[1]; [6],A (100)
same,"Insecticidal effect, Test Example 1",[2]; [7],A (100)
same,"Insecticidal effect, Test Example 3",[3]; [8],A (100)
CC(C)NC(=O)c1c(Br)cccc1C(=O)Nc1ccc(C(F)(F)F)cc1Cl [compound 276],"Insecticidal effect, Test Example 2",[1]; [4],A (100)
same,"Insecticidal effect, Test Example 1",[2]; [9],A (100)
same,"Insecticidal effect, Test Example 3",[3]; [5],A (100)
CSc1cccc(C(=O)Nc2ccc(Cl)cc2C)c1C(=O)NC(C)C [compound 781],"Insecticidal effect on common cutworm (Test Example 2), judged grade",[1],A (100)
same,"Insecticidal effect on diamondback moth (Test Example 1), judged grade",[2],A (100)
same,"Insecticidal effect on rice leafroller (Test Example 3), judged grade",[3],A (100)
Cc1cc(C(F)(F)C(F)(F)C(F)(F)C(F)(F)F)ccc1NC(=O)c1c(Br)cccc1C(=O)NC(C)C [compound 318],"Insecticidal effect, Test Example 2",[1]; [4],B (99-90)
same,"Insecticidal effect, Test Example 1",[2]; [9],A (100)
same,"Insecticidal effect, Test Example 3",[3]; [5],A (100)
Cc1cc(OC(F)(F)F)ccc1NC(=O)c1cccc(Br)c1C(=O)NC(C)C [compound 289],"Insecticidal effect, Test Example 2",[1]; [4],A (100)
same,"Insecticidal effect, Test Example 1",[2]; [9],A (100)
same,"Insecticidal effect, Test Example 3",[3]; [5],A (100)
CCN(CC)C(=O)c1c(I)cccc1C(=O)Nc1ccc(C(F)(C(F)(F)F)C(F)(F)F)cc1C [compound 1532],"Insecticidal effect (Test Example 2), judged from mortality",[1]; [4],A (100)
same,"Insecticidal effect (Test Example 1), judged from mortality",[2],A (100)
same,"Insecticidal effect (Test Example 3), judged from mortality",[3]; [5],A (100)
CC(C)NC(=O)c1c(I)cccc1C(=O)Nc1ccc(OC(F)F)cc1C(F)(F)F [compound 409],"Insecticidal effect, Test Example 2",[1]; [4],A (100)
same,"Insecticidal effect, Test Example 1",[2]; [9],A (100)
same,"Insecticidal effect, Test Example 3",[3]; [5],A (100)
CC(C)NC(=O)c1c(Cl)cccc1C(=O)Nc1ccc(OC(F)(F)C(F)OC(F)(F)C(F)(F)C(F)(F)F)cc1 (stereo not drawn) [compound 93],"Insecticidal effect, Test Example 2",[1]; [4],A (100)
same,"Insecticidal effect, Test Example 1",[2]; [9],A (100)
same,"Insecticidal effect, Test Example 3",[3]; [5],A (100)
Cc1c(Cl)cccc1NC(=O)c1c(Br)cccc1C(=O)NC(C)C [compound 305],"Insecticidal effect, Test Example 2",[1]; [4],A (100)
same,"Insecticidal effect, Test Example 1",[2]; [9],A (100)
same,"Insecticidal effect, Test Example 3",[3]; [5],A (100)
COCC(C)NC(=O)c1c(I)cccc1C(=O)Nc1ccc(C(F)(F)C(F)(F)F)cc1C (stereo not drawn) [compound 1031],"Insecticidal effect, Test Example 2",[1]; [6],A (100)
same,"Insecticidal effect, Test Example 1",[2]; [7],A (100)
same,"Insecticidal effect, Test Example 3",[3]; [8],A (100)
Cc1cc(OC(F)(F)F)ccc1NC(=O)c1ccccc1C(=O)NC(C)(C)C [compound 930],"Insecticidal effect on common cutworm (Test Example 2), judged grade",[1],A (100)
same,"Insecticidal effect on diamondback moth (Test Example 1), judged grade",[2],A (100)
same,"Insecticidal effect on rice leafroller (Test Example 3), judged grade",[3],A (100)
C=CCN(CC=C)C(=O)c1c(I)cccc1C(=O)Nc1ccc(C(F)(F)C(F)(F)F)cc1C [compound 1045],"Insecticidal effect, Test Example 2",[1]; [6],A (100)
same,"Insecticidal effect, Test Example 1",[2]; [7],A (100)
same,"Insecticidal effect, Test Example 3",[3]; [8],A (100)
Cc1cc(OC(F)(F)C(F)(Cl)Cl)ccc1NC(=O)c1cccc(I)c1C(=O)NC(C)C [compound 381],"Insecticidal effect, Test Example 2",[1]; [4],A (100)
same,"Insecticidal effect, Test Example 1",[2]; [9],A (100)
same,"Insecticidal effect, Test Example 3",[3]; [5],A (100)
Cc1cc(C(F)(F)C(F)(F)F)ccc1NC(=O)c1cccc(Cl)c1C(=O)NCc1ccccc1F [compound 1468],"Insecticidal effect (Test Example 2), judged from mortality",[1]; [4],C (89-80)
same,"Insecticidal effect (Test Example 1), judged from mortality",[2],A (100)
same,"Insecticidal effect (Test Example 3), judged from mortality",[3]; [5],A (100)
Cc1cc(C(F)(F)C(F)(F)C(F)(F)C(F)(F)F)ccc1NC(=O)c1cccc(I)c1C(=O)NC(C)C [compound 375],"Insecticidal effect, Test Example 2",[1]; [4],A (100)
same,"Insecticidal effect, Test Example 1",[2]; [9],A (100)
same,"Insecticidal effect, Test Example 3",[3]; [5],A (100)
Cc1cccc(NC(=O)c2c(Cl)cccc2C(=O)NC(C)C)c1C [compound 213],"Insecticidal effect, Test Example 2",[1]; [4],A (100)
same,"Insecticidal effect, Test Example 1",[2]; [9],A (100)
same,"Insecticidal effect, Test Example 3",[3]; [5],A (100)
CC(C)NC(=O)c1c(Cl)cccc1C(=O)Nc1ccc(SC(F)(F)C(F)F)cc1 [compound 102],"Insecticidal effect, Test Example 2",[1]; [4],D (79-50)
same,"Insecticidal effect, Test Example 1",[2]; [9],A (100)
same,"Insecticidal effect, Test Example 3",[3]; [5],A (100)
CC(C)NC(=O)c1cccc(F)c1C(=O)Nc1ccc(OC(F)(F)C(F)OC(F)(F)C(F)(F)C(F)(F)F)cc1 (stereo not drawn) [compound 538],"Insecticidal effect on common cutworm (Test Example 2), judged grade",[1],A (100)
same,"Insecticidal effect on diamondback moth (Test Example 1), judged grade",[2],A (100)
same,"Insecticidal effect on rice leafroller (Test Example 3), judged grade",[3],A (100)
Cc1cc(C(F)(C(F)(F)F)C(F)(F)F)ccc1NC(=O)c1cccc(C(F)(F)F)c1C(=O)NC(C)C [compound 1207],"Insecticidal effect, Test Example 2",[1]; [6],A (100)
same,"Insecticidal effect, Test Example 1",[2]; [7],A (100)
same,"Insecticidal effect, Test Example 3",[3]; [8],A (100)
CC(C)NC(=O)c1cccc(I)c1C(=O)Nc1ccc(C(F)(F)C(F)(F)C(F)(F)F)cc1Cl [compound 468],"Insecticidal effect on common cutworm (Test Example 2), judged grade",[1],A (100)
same,"Insecticidal effect on diamondback moth (Test Example 1), judged grade",[2],A (100)
same,"Insecticidal effect on rice leafroller (Test Example 3), judged grade",[3],B (99-90)
Cc1ccccc1NC(=O)c1cccc([N+](=O)[O-])c1C(=O)NC(C)C [compound 599],"Insecticidal effect on common cutworm (Test Example 2), judged grade",[1],D (79-50)
same,"Insecticidal effect on diamondback moth (Test Example 1), judged grade",[2],A (100)
same,"Insecticidal effect on rice leafroller (Test Example 3), judged grade",[3],A (100)
Cc1cc(C(F)(F)C(F)(F)F)ccc1NC(=O)c1cccc(I)c1C(=O)NC(C)c1ccccn1 (stereo not drawn) [compound 1777],"Insecticidal effect (Test Example 2), judged from mortality",[1]; [4],A (100)
same,"Insecticidal effect (Test Example 1), judged from mortality",[2],A (100)
same,"Insecticidal effect (Test Example 3), judged from mortality",[3]; [5],A (100)
Cc1cc(C(F)(F)C(F)(F)F)ccc1NC(=O)c1cccc(Cl)c1C(=O)NC(C)(C)c1ccc(Cl)cc1 [compound 1484],"Insecticidal effect (Test Example 2), judged from mortality",[1]; [4],A (100)
same,"Insecticidal effect (Test Example 1), judged from mortality",[2],A (100)
same,"Insecticidal effect (Test Example 3), judged from mortality",[3]; [5],A (100)
